From US20240139280A1, “USE OF HIF-1-ALPHA INHIBITORS IN CANCER IMMUNOTHERAPY” (ONCOC4, INC., priority 2021, published 2024)

How the values were obtained:
[1] = Tolerability and LD50 of intravenous echinomycin in mice; conditions: mouse, in vivo
[2] = test system: irAE target organs (liver, kidney), spleen; assay: PD-L1 expression and T cell infiltration in normal tissues (liver, kidney, spleen) of E0771 tumor-bearing mice; format: in vivo, C57BL/6 mice
Experimental: E0771 cells (0.5×10^6) were orthotopically transplanted into C57BL/6 mice (day 0), which were divided into 6 treatment groups: vehicle, echinomycin (LEM), anti-CTLA-4 (9D9), 9D9+echinomycin, 9D9+echinomycin+XMG1.2 (an anti-IFNγ antibody), or 9D9+RMP1-14. Echinomycin (0.25 mg/kg) or mAbs (0.2 mg/mouse/injection) were given on days 6, 8, 10, and 12. On day 14, the mice were euthanized, perfused, and the spleens were dissociated and analyzed by flow cytometry, or stimulated for 4 hours with PMA+ionomycin+GolgiStop prior to intracellular staining for IFNγ. The liver and kidney were processed for immunofluorescence analysis for PD-L1. FIG. 7A. PD-L1 expression in the tumor-bearing mice treated with different therapies. Representative immunofluorescence images shown for kidney (upper) and liver tissues (lower) of mice from indicated treatment groups stained by anti-PD-L1 and DAPI. FIGS. 7B-D. T cell infiltration in the liver and kidney of tumor-bearing mice. Representative immunofluorescence images from mice in the indicated treatment groups after staining with anti-CD3 and DAPI are shown in FIG. 7B for kidney (upper panel) and liver tissues (lower panel). T cell infiltration scores in the kidney (FIG. 7C) and liver (FIG. 7D) are shown as mean±SEM infiltration scores for the kidney (FIG. 7C) and liver tissues (FIG. 7D). T cell infiltration scoring range: 0, normal/none; 1, minimal; 2, mild; 3, moderate; 4, severe. FIG. 7E. Frequency of splenic Tc1 cells among CD8^+ T cells (gated on Singlets/Live_CD45^+/CD3^+/CD8^+CD4^−), expressed as the mean±SEM. FIG. 7F. Frequencies of splenic Th1 cells among CD4^+ T cells (gated on Singlets/Live_CD45^+/CD3^+/CD8^−CD4^+), expressed as the mean±SEM. FIG. 7G. Frequency of splenic T cells (gated on Singlets/Live_CD45^+/CD3^+/CD8^+CD4^−) among total hematopoietic cells (gated on Singlets/Live_CD45^+). Representative data are shown for one of at least two independent experiments. FIG. 7H. CD3 and cleaved-caspase 3 staining in kidney and liver. Representative immunofluorescence images shown for kidney (upper) and liver tissues (lower) of mice that received 9D9 or 9D9+LEM. Caspase 3 positive cells are indicated with arrows. All data is representative of at least two independent experiments. In FIGS. 7C-G, data are presented as the mean±SEM with each dot representing an individual mouse, analyzed by one-way ANOVA with Sidak's posttest.

[3] = test system: E0771 tumor microenvironment; assay: Flow cytometry of dissociated E0771 tumors (tumor cells, myeloid cells, TILs); format: in vivo, C57BL/6 mice
Experimental: FIGS. 6A-D. E0771 cells (0.5×10^6) were orthotopically transplanted into C57BL/6 mice (day 0). The mice received treatment with vehicle, echinomycin (LEM, 0.25 mg/kg/dose), anti-CTLA-4 mAb (9D9, 0.2 mg/mouse/injection), or their combination on days 6, 8, 10, and 12, and were euthanized on day 14. The tumors were dissociated and analyzed by flow cytometry to quantitate PD-L1 expression on tumor cells (gated on Singlets/Live_CD45^−) (FIG. 6A), M-MDSCs (gated on Singlets/Live_CD45^+/CD11b^+CD11c^−/Ly6ChighLy6G^−) (FIG. 6B), PMN-MDSCs (gated on Singlets/Live_CD45^+/CD11b^+CD11c^−/Ly6CInt.Ly6G^+) (FIG. 6C), or CD11c^+TAMs (gated on Singlets/Live_CD45^+/CD11b^+CD11c^+) (FIG. 6D). Upper panels show representative histograms of PD-L1 staining and lower panels show aggregate data from individual mice, pooled from three independent experiments (n=5 mice/group/experiment). Data shown are mean±SEM of PD-L1 MFI. Statistics were determined by one-way ANOVA with Sidak's multiple comparisons test (FIG. 6A), or by two-tailed unpaired t-tests (FIGS. 6B-D). FIGS. 6E-G. Echinomycin treatment reprograms the TME. Dissociated E0771 tumors were obtained from C57BL/6 mice treated with different therapies (n=5 mice/group), as described in FIGS. 6A-D. Single cell suspension were cultured for 4 hours with PMA+ionomycin+Golgi stop, surface stained, and then intracellular stained for IFNγ (for quantitation of Th1 and Tc1 cells) or surface stained for PD-L1. FIG. 6E. IFNγ expression in CD8+tumor-infiltrating lymphocytes (TILs) (gated on Singlets/Live_CD45^+/CD3^+/CD8^+CD4^−). […] FIG. 6F. IFNγ expression in the CD4^+ TILs (gated on Singlets/Live_CD45^+/CD3^+/CD8^−CD4^+). As in FIG. 6E, except that CD4 TIL were analyzed.
FIG. 6G. MHCII expression on CD11c^+ TAMs (gated on Singlets/Live_CD45^+/CD11b^+CD11c^+).
FIGS. 9A-H. C57BL/6 mice received E0771 cells (0.5×10^6/mouse) on day 0 followed by treatment with vehicle, echinomycin (LEM, 0.25 mg/kg/dose), anti-CTLA-4 (9D9, 0.2 mg/mouse/dose), or 9D9+LEM on days 6, 8, and 10. On day 14, tumors were analyzed by flow cytometry. […] Data are presented as the ±SEM of each group (n=5/group), analyzed by unpaired two-tailed Student's t-test and are representative of two experiments. FIGS. 9A-B. Frequencies of TILs expressing PD-1. FIGS. 9C-D. Frequencies of annexin V^+ CD8 or CD4 TILs. FIGS. 9E-F. Frequencies of CD8 TILs expressing granzyme B or perforin. FIGS. 9G-H. Granzyme B and perforin expression in CD4 TILs. FIG. 9I. Effect of depletion of CD4, CD8, or NK cells on tumor growth inhibition by 9D9+LEM in syngeneic E0771 model. C57BL/6 mice received E0771 cells (0.5×10^6/mouse) on day 0. On day 5, the mice were randomized to receive depletory antibodies (500 μg of anti-CD4 (GK1.5), anti-CD8 (YTS169.4), anti-NK1.1 (PK136), or isotype ctrl). All groups received 9D9 (200 ug) on day 6, and LEM (250 ug/kg) on days 6, 8, and 10. Mice received supplemental dose of depletory antibodies (200 μg) on days 8 and 10. The mean±SEM tumor volumes are plotted on the y axes for each group (n=5/group) and analyzed by two-way ANOVA. Representative data shown for one of two experiments.

[4] = with or without anti-CTLA-4 therapy

CSC1SC[C@H]2C(=O)N(C)[C@@H](C(C)C)C(=O)OC[C@@H](NC(=O)c3cnc4ccccc4n3)C(=O)N[C@@H](C)C(=O)N(C)[C@@H]1C(=O)N(C)[C@@H](C(C)C)C(=O)OC[C@@H](NC(=O)c1cnc3ccccc3n1)C(=O)N[C@@H](C)C(=O)N2C (stereo in doubt) [echinomycin, N,N′-(2,4,12,15,17,25-hexamethyl-11,24-bis(1-methylethyl)-27-(methylthio)-3,6,10,13,16,19,23,26-octaoxo-9,22-dioxa-28-thia-2,5,12,15,18,25-hexaazabicyclo(12.12.3)nonacosane-7,20-diyl)bis(2-quinoxalinecarboxamide)]
LD50 [1]: 0.629 mg/kg
T cell infiltration in liver and kidney ([2]; E0771 tumor-bearing C57BL/6, anti-CD3 immunofluorescence): did not stimulate increased infiltration
PD-L1 expression in liver and kidney (immunofluorescence) ([2]; E0771 tumor-bearing C57BL/6, echinomycin 0.25 mg/kg, mAbs 0.2 mg/mouse/injection): also induced PD-L1
PD-L1 expression in normal tissues including liver, kidney, salivary gland and colon ([2]; immunocompetent mice): induced PD-L1 expression
PD-L1 induction in the liver in mice with conditional knockout of Hif1α in T cells ([2]; mouse, in vivo): preserved regardless of the mouse genotype
frequencies of tumor-infiltrated lymphocytes or myeloid subsets ([3]; E0771 tumors): did not significantly impact
apoptotic (annexin V) CD8 TILs ([3]; compared to vehicle, echinomycin added to 9D9): appeared to repress this effect
PD-1 expression on CD8 TILs ([3]; compared to vehicle, echinomycin added to anti-CTLA-4): reversed
PD-L1 expression on CD11b+CD11c+ double-positive cells [3, 4]: significantly reduced PD-L1 expression
PD-L1 expression on PMN-MDSCs [3, 4]: significantly reduced PD-L1 expression
PD-L1 expression on tumor-infiltrated monocytic MDSCs (M-MDSC) [3, 4]: significantly reduced PD-L1 expression
PD-L1 expression on tumor cells ([3]; with or without anti-CTLA-4 therapy, LEM 0.25 mg/kg/dose): significantly reduced PD-L1 expression
